The results in this text go back to US8367625B2, “Antibacterial aminoglycoside analogs” (Achaogen, Inc., priority 2008, dated 2013).

As usually defined, the MIC is the least concentration at which growth counts as inhibited.

The test system of assay [1] is E. coli ATCC 25922 (AECO001). In words: MIC assay, CLSI broth microdilution, AECO001. It counts as cell-based. The following applies: Escherichia coli; AECO001 is ATCC25922; Mueller Hinton Broth, 35 C, 20 hours. Here is the method: (§1) Minimum inhibitory concentrations (MIC) were determined by reference Clinical and Laboratory Standards Institute (CLSI) broth microdilution methods per M7-A7 [2006]. Quality control ranges utilizing E. coli ATCC 25922, P. aeruginosa ATCC 27853 and S. aureus ATCC 29213, and interpretive criteria for comparator agents were as published in CLSI M100-S17 [2007]. Briefly, serial two-fold dilutions of the test compounds were prepared at 2× concentration in Mueller Hinton Broth. The compound dilutions were mixed in 96-well assay plates in a 1:1 ratio with bacterial inoculum. The inoculum was prepared by suspension of a colony from an agar plate that was prepared the previous day. Bacteria were suspended in sterile saline and added to each assay plate to obtain a final concentration of 5×10^5 CFU/mL. The plates were incubated at 35 C. for 20 hours in ambient air.
For orientation: In broth dilution the organism is exposed to a series of concentrations in liquid medium.

Assay [2] has as its system P. aeruginosa ATCC 27853 (APAE001). The assay is described as follows: MIC assay, CLSI broth microdilution, APAE001. The format is cell-based. Conditions: Pseudomonas aeruginosa; APAE001 is ATCC27853; Mueller Hinton Broth, 35 C, 20 hours. Here is the method: as §1

≈ marks a conversion by molar mass, not a printed value.

`NCC[C@H](O)C(=O)N[C@@H]1C[C@H](N)[C@@H](O[C@H]2O[C@H](CNCCO)C=C[C@H]2N)[C@H](O[C@@H]2O[C@H](CO)[C@@H](O[C@H]3O[C@@H](CN)[C@@H](O)[C@H](O)[C@H]3N)[C@H]2O)[C@H]1O` [1/20]: the MIC was no more than 1 µg/mL in assay [1] and 1 to 16 µg/mL (≈ 1.38 to 22 µM) in assay [2].
